target: Acrosin (Homo sapiens, UniProt P10323); experiment: Inhibition of human acrosin using N-alpha-benzoyl-DL-arginine para-nitroanilide-HCl as substrate after 3 hrs by spectrophotometry
Sequence (P10323 20-42 limits assumed): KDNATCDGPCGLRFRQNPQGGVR
Sequence (P10323 43-343 limits assumed): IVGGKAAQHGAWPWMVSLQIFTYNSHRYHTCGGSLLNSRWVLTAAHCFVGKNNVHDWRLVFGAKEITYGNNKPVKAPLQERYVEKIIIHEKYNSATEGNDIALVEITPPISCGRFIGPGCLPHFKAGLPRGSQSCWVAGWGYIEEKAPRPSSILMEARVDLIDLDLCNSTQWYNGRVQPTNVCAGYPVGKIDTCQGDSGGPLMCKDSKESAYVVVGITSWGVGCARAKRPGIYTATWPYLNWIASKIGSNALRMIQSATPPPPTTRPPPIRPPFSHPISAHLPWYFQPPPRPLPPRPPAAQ

Structure (SMILES)	IC50 [mM]
O=Cc1cc(-c2ccc(Cl)cc2Cl)on1	39
Cc1cccc(CNS(=O)(=O)c2ccc3nc(NC(=O)NCCO)[nH]c3c2)c1	5.45
COc1ccc(-c2cc(C(=O)N(C)CCO)n[nH]2)cc1	6.81
COc1ccccc1CNS(=O)(=O)c1ccc2nc(NC(=O)NCCO)[nH]c2c1	6.04
CCCCN(CCCC)CC(=O)Nc1nc2ccc(Br)cc2s1	2.78
O=C(NCCO)Nc1nc2ccc(S(=O)(=O)NCc3ccccc3)cc2[nH]1	0.28
Cc1ccc(S(=O)(=O)NC(CCCCN)C(=O)CCl)cc1 (stereo unspecified)	143
CNC(=O)c1nn(C(=O)c2ccc(Cl)cc2Cl)c2ccccc12	3.78
CCOC(=O)c1nn(C(=O)c2ccc(Cl)cc2Cl)c2ccccc12	3.24

Further compounds by falling IC50, results first:

IC50 [mM]	Structure (SMILES)
8.92	COc1ccc(-c2cc(C(=O)NCC(C)O)n[nH]2)cc1 (stereo unspecified)
7.32	COc1cccc(CNS(=O)(=O)c2ccc3nc(NC(=O)NCCO)[nH]c3c2)c1
5.73	COc1ccc(-c2cc(C(=O)N(CCO)CCO)n[nH]2)cc1
5.08	CCCCCN1CCN(CC(=O)Nc2nc3ccc(Br)cc3s2)CC1
2.45	O=C(NCCO)Nc1nc2ccc(S(=O)(=O)NCc3cc(Cl)cc(Cl)c3)cc2[nH]1
1.62	CCCCCCNS(=O)(=O)c1ccc2nc(NC(=O)NCCO)[nH]c2c1
1.43	COc1ccc(-c2cc(C(=O)NCCCO)[nH]n2)cc1
1.09	CC(C)CCN(CCC(C)C)CC(=O)Nc1nc2ccc(Br)cc2s1
1.06	O=C(NCCO)Nc1nc2ccc(S(=O)(=O)NCc3ccccc3Cl)cc2[nH]1
0.54	CCCCCN(CCCCC)CC(=O)Nc1nc2ccc(Br)cc2s1
0.34	O=C(NCCO)Nc1nc2ccc(S(=O)(=O)NCc3cc(F)cc(F)c3)cc2[nH]1
0.08	O=C(NCCO)Nc1nc2ccc(S(=O)(=O)NCc3ccccc3F)cc2[nH]1
